Assay results published in PubChem BioAssay AID1918945 (Molecular Pharmacology Branch, DTP, NCI, 2023).

Test system: 883617-216-R-J1-PDC complex spheroid viability
Experiment: Anticancer human tumor 883617-216-R-J1-PDC patient-derived bladder carcinoma cell line growth inhibition
Details: for IC50: curve of first compound; for viability, T/C: stronger effect = lower value
Method in brief: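 Complex spheroids of tumor cells with HUVEC and human MSCs, exposed to iadademstat combined with other agents. Each agent tested in half-log steps from near clinical Cmax (else 10 microM top), DMSO ≤0.25%.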

[1] = second compound 0.1 µM, first compound 0.00949 µM
[2] = second compound 0.1 µM, first compound 0.03 µM
[3] = second compound 0.1 µM, first compound 0.0949 µM
[4] = second compound 0.1 µM, first compound 0.3 µM
[5] = second compound 0.316 µM, first compound 0.00949 µM
[6] = second compound 0.316 µM, first compound 0.03 µM
[7] = second compound 0.316 µM, first compound 0.0949 µM
[8] = second compound 0.316 µM, first compound 0.3 µM
[9] = second compound 1 µM, first compound 0.00949 µM
[10] = second compound 1 µM, first compound 0.03 µM
[11] = second compound 1 µM, first compound 0.0949 µM
[12] = second compound 1 µM, first compound 0.3 µM
[13] = second compound 3.16 µM, first compound 0.00949 µM
[14] = second compound 3.16 µM, first compound 0.03 µM
[15] = second compound 3.16 µM, first compound 0.0949 µM
[16] = second compound 3.16 µM, first compound 0.3 µM
[17] = second compound 10 µM, first compound 0.00949 µM
[18] = second compound 10 µM, first compound 0.03 µM
[19] = second compound 10 µM, first compound 0.0949 µM
[20] = second compound 10 µM, first compound 0.3 µM
[21] = second compound 0.1 µM, first compound 0.000949 µM
[22] = second compound 0.1 µM, first compound 0.003 µM
[23] = second compound 0.316 µM, first compound 0.000949 µM
[24] = second compound 0.316 µM, first compound 0.003 µM
[25] = second compound 1 µM, first compound 0.000949 µM
[26] = second compound 1 µM, first compound 0.003 µM
[27] = second compound 3.16 µM, first compound 0.000949 µM
[28] = second compound 3.16 µM, first compound 0.003 µM
[29] = second compound 10 µM, first compound 0.000949 µM
[30] = second compound 10 µM, first compound 0.003 µM
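Note: exposure lasted seven days after three days of spheroid growth.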
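Throughout, for viability, T/C: 100% = DMSO vehicle control luminescence.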

Q: CC[C@@]1(O)C(=O)OCc2c1cc1n(c2=O)Cc2cc3c(CN(C)C)c(O)ccc3nc2-1 + NC1CC1c1ccc(-c2cccc(O)c2)cc1 was tested. Which IC50 (second compound 0.1 µM) did it give?
A: 2.14 nM

Q: What about the IC50 (second compound 0.316 µM) of the same compound?
A: 2.24 nM

Q: And the IC50 (second compound 1 µM)?
A: 2.07 nM

Q: And the IC50 (second compound 3.16 µM)?
A: 1.42 nM

Q: And the IC50 (second compound 10 µM)?
A: 0.862 nM

Q: What about the viability, T/C (second compound 0.1 µM, first compound 0.000316 µM) of the same compound?
A: 97.4%

Q: What about the viability, T/C (second compound 0.1 µM, first compound 0.001 µM) of the same compound?
A: 61.4%

Q: What about the viability, T/C (second compound 0.1 µM, first compound 0.00316 µM) of the same compound?
A: 45.5%

Q: What about the viability, T/C (second compound 0.1 µM, first compound 0.01 µM) of the same compound?
A: 30.5%

Q: What about the viability, T/C (second compound 0.1 µM, first compound 0.0316 µM) of the same compound?
A: 24.3%

Q: What about the viability, T/C (second compound 0.1 µM, first compound 0.1 µM) of the same compound?
A: 19.4%

Q: And the viability, T/C (second compound 0.316 µM, first compound 0.000316 µM)?
A: 94.8%

Q: And the viability, T/C (second compound 0.316 µM, first compound 0.001 µM)?
A: 73.4%

Q: What about the viability, T/C (second compound 0.316 µM, first compound 0.00316 µM) of the same compound?
A: 37.9%

Q: What about the viability, T/C (second compound 0.316 µM, first compound 0.01 µM) of the same compound?
A: 30.4%

Q: And the viability, T/C (second compound 0.316 µM, first compound 0.0316 µM)?
A: 22.9%

Q: And the viability, T/C (second compound 0.316 µM, first compound 0.1 µM)?
A: 19.1%

Q: What about the viability, T/C (second compound 1 µM, first compound 0.000316 µM) of the same compound?
A: 93.7%

Q: And the viability, T/C (second compound 1 µM, first compound 0.001 µM)?
A: 71.5%

Q: And the viability, T/C (second compound 1 µM, first compound 0.00316 µM)?
A: 36.9%

Q: What about the viability, T/C (second compound 1 µM, first compound 0.01 µM) of the same compound?
A: 27.2%

Q: And the viability, T/C (second compound 1 µM, first compound 0.0316 µM)?
A: 24.6%

Q: What about the viability, T/C (second compound 1 µM, first compound 0.1 µM) of the same compound?
A: 21.2%

Q: And the viability, T/C (second compound 3.16 µM, first compound 0.000316 µM)?
A: 93.8%

Q: And the viability, T/C (second compound 3.16 µM, first compound 0.001 µM)?
A: 57.6%

Q: And the viability, T/C (second compound 3.16 µM, first compound 0.00316 µM)?
A: 32.2%

Q: What about the viability, T/C (second compound 3.16 µM, first compound 0.01 µM) of the same compound?
A: 27.9%

Q: And the viability, T/C (second compound 3.16 µM, first compound 0.0316 µM)?
A: 24.2%

Q: And the viability, T/C (second compound 3.16 µM, first compound 0.1 µM)?
A: 17.9%

Q: What about the viability, T/C (second compound 10 µM, first compound 0.000316 µM) of the same compound?
A: 76.1%

Q: What about the viability, T/C (second compound 10 µM, first compound 0.001 µM) of the same compound?
A: 42.2%

Q: And the viability, T/C (second compound 10 µM, first compound 0.00316 µM)?
A: 35.3%

Q: And the viability, T/C (second compound 10 µM, first compound 0.01 µM)?
A: 26.6%

Q: And the viability, T/C (second compound 10 µM, first compound 0.0316 µM)?
A: 24.2%

Q: And the viability, T/C (second compound 10 µM, first compound 0.1 µM)?
A: 16.9%

Q: Which results are given for COc1cc(C2c3cc4c(cc3C(OC3OC5COC(C)OC5C(O)C3O)C3COC(=O)C23)OCO4)cc(OC)c1O (stereo not given) + NC1CC1c1ccc(-c2cccc(O)c2)cc1?
A: IC50 (second compound 0.1 µM): 163 nM; IC50 (second compound 0.316 µM): 156 nM; IC50 (second compound 1 µM): 92.8 nM; IC50 (second compound 3.16 µM): 76.5 nM; IC50 (second compound 10 µM): 58 nM; viability, T/C [1]: 99.3%; viability, T/C [2]: 73%; viability, T/C [3]: 56.1%; viability, T/C [4]: 43.9%; viability, T/C (second compound 0.1 µM, first compound 0.949 µM): 35.4%; viability, T/C (second compound 0.1 µM, first compound 3 µM): 31.6%; viability, T/C [5]: 103%; viability, T/C [6]: 79.6%; viability, T/C [7]: 55.6%; viability, T/C [8]: 41.9%; viability, T/C (second compound 0.316 µM, first compound 0.949 µM): 39.8%; viability, T/C (second compound 0.316 µM, first compound 3 µM): 34.9%; viability, T/C [9]: 106%; viability, T/C [10]: 81%; viability, T/C [11]: 48.8%; viability, T/C [12]: 38.8%; viability, T/C (second compound 1 µM, first compound 0.949 µM): 41.3%; viability, T/C (second compound 1 µM, first compound 3 µM): 31.4%; viability, T/C [13]: 90.6%; viability, T/C [14]: 67.7%; viability, T/C [15]: 43.7%; viability, T/C [16]: 37.7%; viability, T/C (second compound 3.16 µM, first compound 0.949 µM): 33.5%; viability, T/C (second compound 3.16 µM, first compound 3 µM): 27.9%; viability, T/C [17]: 82.4%; viability, T/C [18]: 59.5%; viability, T/C [19]: 37.4%; viability, T/C [20]: 44.5%; viability, T/C (second compound 10 µM, first compound 0.949 µM): 31.9%; viability, T/C (second compound 10 µM, first compound 3 µM): 28.5%

Q: With CCc1c2c(nc3ccc(O)cc13)-c1cc3c(c(=O)n1C2)COC(=O)[C@]3(O)CC + NC1CCC(NC2CC2c2ccccc2)CC1 as the compound, how does the IC50 (second compound 0.1 µM) read?
A: < 0.949 nM

Q: And the IC50 (second compound 0.316 µM)?
A: < 0.949 nM

Q: And the IC50 (second compound 1 µM)?
A: < 0.949 nM

Q: What about the IC50 (second compound 3.16 µM) of the same compound?
A: < 0.949 nM

Q: What about the IC50 (second compound 10 µM) of the same compound?
A: < 0.949 nM

Q: What about the viability, T/C [21] of the same compound?
A: 34.6%

Q: And the viability, T/C [22]?
A: 27.8%

Q: What about the viability, T/C [1] of the same compound?
A: 24.9%

Q: And the viability, T/C [2]?
A: 24.2%

Q: What about the viability, T/C [3] of the same compound?
A: 5.01%

Q: And the viability, T/C [4]?
A: 2.12%

Q: And the viability, T/C [23]?
A: 35.5%

Q: What about the viability, T/C [24] of the same compound?
A: 28.4%

Q: What about the viability, T/C [5] of the same compound?
A: 25%

Q: What about the viability, T/C [6] of the same compound?
A: 22.8%

Q: What about the viability, T/C [7] of the same compound?
A: 3.48%

Q: And the viability, T/C [8]?
A: 0.41%

Q: What about the viability, T/C [25] of the same compound?
A: 36.2%

Q: What about the viability, T/C [26] of the same compound?
A: 24.4%

Q: And the viability, T/C [9]?
A: 26.4%

Q: What about the viability, T/C [10] of the same compound?
A: 23.7%

Q: And the viability, T/C [11]?
A: 4.59%

Q: What about the viability, T/C [12] of the same compound?
A: 0.62%

Q: What about the viability, T/C [27] of the same compound?
A: 31.6%

Q: What about the viability, T/C [28] of the same compound?
A: 25.7%

Q: What about the viability, T/C [13] of the same compound?
A: 26.7%

Q: What about the viability, T/C [14] of the same compound?
A: 23.6%

Q: And the viability, T/C [15]?
A: 5.29%

Q: What about the viability, T/C [16] of the same compound?
A: 1.43%

Q: What about the viability, T/C [29] of the same compound?
A: 30.6%

Q: What about the viability, T/C [30] of the same compound?
A: 25.7%

Q: And the viability, T/C [17]?
A: 25.2%

Q: And the viability, T/C [18]?
A: 25.6%

Q: And the viability, T/C [19]?
A: 3.82%

Q: What about the viability, T/C [20] of the same compound?
A: 0.29%

Q: How did the IC50 (second compound 0.1 µM) turn out when Nc1ccn(C2OC(CO)C(O)C2(F)F)c(=O)n1 (stereo not given) + NC1CC1c1ccc(-c2cccc(O)c2)cc1 was run?
A: < 0.949 nM

Q: What about the IC50 (second compound 0.316 µM) of the same compound?
A: < 0.949 nM

Q: And the IC50 (second compound 1 µM)?
A: < 0.949 nM

Q: And the IC50 (second compound 3.16 µM)?
A: < 0.949 nM

Q: What about the IC50 (second compound 10 µM) of the same compound?
A: < 0.949 nM

Q: And the viability, T/C [21]?
A: 19.4%

Q: And the viability, T/C [22]?
A: 23.2%

Q: What about the viability, T/C [1] of the same compound?
A: 21.9%

Q: What about the viability, T/C [2] of the same compound?
A: 22.2%

Q: What about the viability, T/C [3] of the same compound?
A: 23.6%

Q: And the viability, T/C [4]?
A: 24.9%

Q: And the viability, T/C [23]?
A: 19.8%

Q: And the viability, T/C [24]?
A: 20.6%

Q: And the viability, T/C [5]?
A: 22.8%

Q: And the viability, T/C [6]?
A: 21%

Q: What about the viability, T/C [7] of the same compound?
A: 23.2%

Q: And the viability, T/C [8]?
A: 23%

Q: What about the viability, T/C [25] of the same compound?
A: 22%

Q: What about the viability, T/C [26] of the same compound?
A: 20.8%

Q: What about the viability, T/C [9] of the same compound?
A: 23.4%

Q: And the viability, T/C [10]?
A: 21.5%

Q: What about the viability, T/C [11] of the same compound?
A: 21.1%

Q: And the viability, T/C [12]?
A: 24.4%

Q: And the viability, T/C [27]?
A: 21.9%

Q: What about the viability, T/C [28] of the same compound?
A: 20.8%

Q: And the viability, T/C [13]?
A: 20.6%

Q: What about the viability, T/C [14] of the same compound?
A: 25.6%

Q: And the viability, T/C [15]?
A: 21%

Q: What about the viability, T/C [16] of the same compound?
A: 20.9%

Q: What about the viability, T/C [29] of the same compound?
A: 29.5%

Q: And the viability, T/C [30]?
A: 27.2%

Q: And the viability, T/C [17]?
A: 24.9%

Q: What about the viability, T/C [18] of the same compound?
A: 24.3%

Q: What about the viability, T/C [19] of the same compound?
A: 23.3%

Q: What about the viability, T/C [20] of the same compound?
A: 21.6%
